The test system of one experiment is U266. Briefly: MTT viability assay, U266. It is filed as cell-based. Conditions: Homo sapiens, U-266, Multiple Myeloma, read-out: IC50 Avg ± s.d. (n = 3), U266. An excerpt: Cell Lines: PC-9 cell line used was obtained from Sigma Aldrich and grown in RPMI 1640 medium with 10% fetal bovine serum and 1% penicillin/streptomycin. HCC4006, U266, MM1.s, and Beas-2B cell lines were obtained from ATCC and cultured in either RPMI 1640 or DMEM with 10% fetal bovine serum and 1% penicillin/streptomycin. All cell lines were also checked for mycoplasma every six months and subjected to short tandem repeat (STR) analysis for cell line validation. CRISPR Cas9: CRISPR Guide RNA 2 targeting ERO1α and CRISPR Guide RNA 4 were purchased from Genscript in the pLentiCRISPR V2 plasmid containing puromycin/ampicillin selection marker. Lentivirus was made from HEK 293T cells by co-transfection with GuideRNA of interest, pVSVG, and pPAX2 plasmids. […] Plate was then read on the BioTek Cytation 5 at 530/590 nm. […] Plate was then read at 570 nm. Treated wells were all compared to DMSO control wells to calculate percent growth inhibition and the IC50 was calculated using GraphPad (log(inhibitor) vs growth inhibition). […] Images were then quantified using ImageJ. […] Cells were aliquoted at 1 million cells per PCR tube in PBS and heated in Bio-Rad T100 thermal cycler at indicated temperatures (RT, 46° C., 48° C., 50° C., 52° C., 54° C., 56°, 58° C., and 60° C.) for 3 minutes and aggregation temperature was determined by western blot analysis. […]

Another experiment deals with T1, purified human ERO1α (Homo sapiens, UniProt Q96HE7, C104A/C131A/C166A).
T1 construct: made in house
T1 sequence (Q96HE7 22-468 C104A/C131A/C166A): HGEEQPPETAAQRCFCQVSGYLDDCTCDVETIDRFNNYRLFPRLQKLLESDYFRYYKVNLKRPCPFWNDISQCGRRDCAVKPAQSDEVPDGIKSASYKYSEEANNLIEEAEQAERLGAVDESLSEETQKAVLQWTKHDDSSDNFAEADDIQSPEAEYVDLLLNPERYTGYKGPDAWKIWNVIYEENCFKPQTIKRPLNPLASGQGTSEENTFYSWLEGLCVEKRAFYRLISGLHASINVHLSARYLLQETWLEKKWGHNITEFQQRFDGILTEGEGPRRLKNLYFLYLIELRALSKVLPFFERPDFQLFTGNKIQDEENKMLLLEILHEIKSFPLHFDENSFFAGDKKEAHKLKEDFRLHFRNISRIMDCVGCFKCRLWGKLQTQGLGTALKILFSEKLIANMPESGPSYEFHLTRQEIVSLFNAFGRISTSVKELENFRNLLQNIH
Briefly: Recombinant ERO1α enzyme assay (Amplex Red). It is filed as biochemical. Conditions: ratio of enzyme IC50 values. As for the experimental part:
Based on previous work which established an aurone chemical class of compounds as FAD containing enzyme inhibitors^37, we evaluated sulfuretin analogs for ERO1α enzyme inhibition.
Quantification of enzymatic activity of ERO1α was performed using the Amplex Red as previously described^6.

Structures are written as SMILES.

Regarding `CN(C)c1ccc(/C=C2\Oc3cc(O)ccc3C2=O)cc1` [Compound T151742], the IC50 (in general, the point on the concentration scale where inhibition reaches its midpoint) in the experiment with U266 came to 8.93 ± 1.13 µM. The “fold more potent compared to EN-460” value at purified human ERO1α is “approximately 2 fold”.

The values above are taken from patent publication US20250064773A1, “TARGETING ERO1 ALPHA WITH AURONE DERIVATIVES” (West Virginia University Board of Governors on behalf of …, priority 2021, published 2025).
